One assay has as its system VM21 melanoma cells. The assay can be described thus: MTT colorimetric assay, overall cell growth, VM21. The class given is cell-based, human. As to conditions: Homo sapiens, read-out: In Vitro IC50 Growth Inhibitory Values, VM21. An outline of the steps:
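Seed cells in their own medium and incubate 24 h at 37 °C. Replace medium with compound-containing medium (10^-8 to 10^-4 M) and incubate 72 h.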
Background: Tetrazolium assays rely on reduction of a dye to a coloured formazan, in cell work by metabolically active cells.

Another assay deals with T1, DYRK1A kinase (Homo sapiens, UniProt Q13627).
T1 construct: made in house
As to the kind of experiment: Radiometric protein kinase assay (33 PanQinase), DYRK-1A. The format is biochemical. The conditions noted are these: for IC50: dose-response 0-100 μM, n=3, read-out: IC50: Concentration of drug needed in order to inhibit kinase activity by 50%, DYRK-1A; for inhibition at 57 µM: read-out: inhibition of DYRK-1A activity. The protocol:
The kinase inhibition profile of DLT11 at 20 μM was determined using 250 protein kinases. […] A radiometric protein kinase assay (33 PanQinase®Activity Assay) was used for measuring the kinase activity of 250 protein kinases. All kinase assays were performed in 96-well flashPlates™ from Perkin Elmer (Boston, Mass., USA) in a 50 μl reaction volume. The reaction cocktail was pipetted in 4 steps in the following order: • 10 μl of non-radioactive ATP solution (in H2O) • 25 μl of assay buffer/[γ-33P]-ATP mixture • 5 μl of test sample in 10% DMSO • 10 μl of enzyme/substrate mixture
The kinase inhibition profile of DLT95-Cl at 20 μM was determined using 255 protein kinases. […] A radiometric protein kinase assay (33 PanQinase®Activity Assay) was used for measuring the kinase activity of 250 protein kinases. All kinase assays were performed in 96-well flashPlates™ from Perkin Elmer (Boston, Mass., USA) in a 50 μl reaction volume. The reaction cocktail was pipetted in 4 steps in the following order: • 10 μl of non-radioactive ATP solution (in H2O) • 25 μl of assay buffer/[γ-33P]-ATP mixture • 5 μl of test sample in 10% DMSO • 10 μl of enzyme/substrate mixture
(§1) The assay for all enzymes contained 60 mM HEPES-NaOH, pH 7.5, 3 mM MgCl2, 3 mM MnCl2, 3 μM Na-orthovanadate, 1.2 mM DTT, 50 μg/ml PEG20000, 1 μM ATP/[γ-33P]-ATP (approx. […] per well), protein kinase, and substrate. All PKC assays (except the PKC-mu and the PKC-nu assay) additionally contained 1 mM CaCl2, 4 mM EDTA, 5 μg/ml Phosphatidylserine and 1 μg/ml 1,2-Dioleyl-glycerol. The MYLK2, CAMK1D, CAMK2A, CAMK2B, CAMK2D, CAMK4, CAMKK2, DAPK2 and EEF2K assays additionally contained 1 μg/ml Calmodulin and 0.5 mM CaCl2. The PRKG1 and PRKG2 assays additionally contained 1 μM cGMP.
(§2) The protein kinases were expressed either in Sf9 insect cells or in E. coli as recombinant GST-fusion proteins or as His-tagged proteins. All kinases were produced from human cDNAs. Kinases were purified by affinity chromatography using either GSH-agarose (Sigma) or Ni-NTH-agarose (Qiagen). The purity of the protein kinases was examined by SDS-PAGE/coomassie staining. The identity of the protein kinases was checked by mass spectroscopy.
(§3) The reaction cocktails were incubated at 30° C. for 60 minutes. The reaction was stopped with 50 μl of 2% (v/v) H3PO4, plates were aspirated and washed two times with 200 μl 0.9% (w/v) NaCl. All assays were performed with a BeckmanCoulter Biomek 2000/SL robotic system.
(§4) Incorporation of ^33Pi (counting of “cpm”) was determined with a microplate scintillation counter (Microbeta, Wallac).
(§5) For each kinase, the median value of the cpm of three wells with complete reaction cocktails, but without kinase, was defined as “low control” […]. This value reflects unspecific binding of radioactivity to the plate in the absence of protein kinase but in the presence of the substrate. Additionally, for each kinase the median value of the cpm of three other wells with the complete reaction cocktail, but without any compound, was taken as the “high control”, i.e. full activity in the absence of any inhibitor […]. The difference between high and low control of was taken as 100% activity for each kinase. As part of the data evaluation the low control value of each kinase was subtracted from the high control value as well as from their corresponding “compound values”. The residual activity (in %) for each compound well was calculated by using the following formula: Res. Activity (%)=100×[(cpm of compound−low control)/(high control−low control)]

For another assay, the target named is T2, WEE1 kinase (Homo sapiens, UniProt P30291).
T2 construct: made in house
As to the kind of experiment: Radiometric protein kinase assay (33 PanQinase), WEE1. The class given is biochemical. As to conditions: for IC50: dose-response 0-100 μM, n=3, read-out: IC50: Concentration of drug needed in order to inhibit kinase activity by 50%, WEE1; for inhibition at 57 µM: read-out: inhibition of WEE1 activity. The protocol: A radiometric protein kinase assay (33 PanQinase®Activity Assay) was used for measuring the kinase activity of 250 protein kinases. All kinase assays were performed in 96-well flashPlates™ from Perkin Elmer (Boston, Mass., USA) in a 50 μl reaction volume. The reaction cocktail was pipetted in 4 steps in the following order: • 10 μl of non-radioactive ATP solution (in H2O) • 25 μl of assay buffer/[γ-33P]-ATP mixture • 5 μl of test sample in 10% DMSO • 10 μl of enzyme/substrate mixture
as §1, §2, §3, §4, §5

Consider six compounds from patent US20110280940A1, “Di-Vanilloyl And Tri-Vanilloyl Derivatives For Use In Anti-Cancer Therapy” (priority 2008, published 2011).

SMILES strings stand for the structures. Read-outs that look alike come from different tables or passages of the source. Where only a bound is given, the exact number is not on record here.

T2 sequence (P30291 whole entry): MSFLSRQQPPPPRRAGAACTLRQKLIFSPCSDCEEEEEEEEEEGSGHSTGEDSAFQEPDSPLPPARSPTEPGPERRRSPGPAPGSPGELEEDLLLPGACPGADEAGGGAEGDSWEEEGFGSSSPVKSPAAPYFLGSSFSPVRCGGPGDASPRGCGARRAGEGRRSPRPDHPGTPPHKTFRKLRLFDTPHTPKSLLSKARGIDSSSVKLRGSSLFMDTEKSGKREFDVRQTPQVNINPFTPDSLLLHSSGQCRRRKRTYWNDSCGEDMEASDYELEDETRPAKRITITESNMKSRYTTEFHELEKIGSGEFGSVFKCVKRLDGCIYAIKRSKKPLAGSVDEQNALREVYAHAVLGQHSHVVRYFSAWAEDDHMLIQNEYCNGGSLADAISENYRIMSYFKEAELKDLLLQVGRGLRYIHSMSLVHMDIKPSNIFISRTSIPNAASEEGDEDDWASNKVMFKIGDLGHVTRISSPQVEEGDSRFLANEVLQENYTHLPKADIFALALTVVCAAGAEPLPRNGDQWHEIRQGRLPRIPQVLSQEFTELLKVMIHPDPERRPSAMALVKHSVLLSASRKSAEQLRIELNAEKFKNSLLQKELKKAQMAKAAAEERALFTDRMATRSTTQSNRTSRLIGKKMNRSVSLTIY

With `COc1cc(C(=O)OCCCCCCOC(=O)c2ccc(O)c(OC)c2)ccc1O` [DLT11, Hexane-1,6-diyl bis-(4-hydroxy-3-methoxybenzoate)], in the assay on VM21 melanoma cells (MTT, 72 hours of incubation), the IC50 is 71 µM. Further, the “inhibition of Dyrk1A” value against DYRK1A kinase (20 μM (FIG. 3)) is given as 5%.
In the case of `COc1cc(C(=O)O)ccc1O` [vanillic acid, reference compound], the IC50 in the assay with VM21 melanoma cells (MTT, 72 hours of incubation) was more than 1000 µM; at WEE1 kinase, more than 100 µM; on DYRK1A kinase, more than 100 µM.
Broadly, the inhibition is the drop in the measured response relative to a control, in per cent. For `O=C(OCc1cc(COC(=O)c2ccc(O)c(Cl)c2)cc(COC(=O)c2ccc(O)c(Cl)c2)c1)c1ccc(O)c(Cl)c1` [DLT95-Cl, [3,5-bis[(4-hydroxy-3-chloro-benzoyl)oxymethyl]phenyl]methyl 4-hydroxy-3-chloro-benzoate], the results for the IC50 in the assay on VM21 melanoma cells (72 h), at WEE1 kinase and at DYRK1A kinase were 35 µM, 3.74 µM and 3.2 µM, respectively. Besides, the inhibition at 57 µM at WEE1 kinase and on DYRK1A kinase was not below 50% each time.
As to `COc1cc(C(=O)OCCOC(=O)c2ccc(O)c(OC)c2)ccc1O` [DLT1, Ethane-1,2-diyl bis-(4-hydroxy-3-methoxybenzoate)], the IC50 with VM21 melanoma cells (MTT, 72 hours of incubation) was determined as 55 µM.
Consider `COc1cc(C(=O)OCc2cc(COC(=O)c3ccc(O)c(OC)c3)cc(COC(=O)c3ccc(O)c(OC)c3)c2)ccc1O` [DLT95, [3,5-bis[(4-hydroxy-3-methoxy-benzoyl)oxymethyl]phenyl]methyl 4-hydroxy-3-methoxy-benzoate], for which the IC50 on WEE1 kinase and at DYRK1A kinase was more than 100 µM throughout.
As for `O=C(OCc1cc(COC(=O)c2ccc(O)c(F)c2)cc(COC(=O)c2ccc(O)c(F)c2)c1)c1ccc(O)c(F)c1` [DLT95-F, [3,5-bis[(4-hydroxy-3-fluoro-benzoyl)oxymethyl]phenyl]methyl 4-hydroxy-3-fluoro-benzoate], the IC50 turned out to be 65 µM in the assay with VM21 melanoma cells (72 h), 7.12 µM on WEE1 kinase and 7.1 µM at DYRK1A kinase. Besides, the inhibition at 57 µM at WEE1 kinase and at DYRK1A kinase was not below 50% throughout.
